Source: patent US10092620B2, “Uses of cyclic peptides for treating and preventing atherosclerosis” (THE SCRIPPS RESEARCH INSTITUTE, priority 2013, dated 2018)
Non-standard residues stand in square brackets, D forms with d. Residues, ends and D or L forms follow the SMILES beside them.

Test system: human plasma HDL
Test: human plasma HDL remodeling (NDGGE, immunoblot for human apoA-I)
Type: biochemical
Details: human plasma in vitro; Western blot for apoA-I; FIGS. 1 and 2a
Description: As an initial phase of investigation, we evaluated in vitro the effectiveness of our cyclic D,L-α-peptides to remodel mature human plasma HDLs into lipid-poor HDL (FIG. 1 and FIG. 2a). Lipid-poor HDL particles are key acceptors of cholesterol in reverse cholesterol transport and are thus crucial for combating atherosclerosis. In fact, with respect to the cholesterol efflux capacity of human sera, the levels of lipid-poor HDL correlate much better than the levels of HDL-cholesterol or apoA-I. Briefly, our assay involved incubating human plasma with a peptide, after which the plasma sample was subjected to non-denaturing gradient gel electrophoresis (NDGGE) to separate the HDL subspecies and then immunoblotted for human apoA-I. The ranked activities of the cyclic D,L-α-peptides in promoting formation of lipid-poor HDL are shown in FIG. 1. It should be noted that there are inherent variabilities associated with electrophoretic transfer, staining, and densitometric quantitation, so the peptide ranking should be viewed as an approximate guide to relative plasma HDL remodeling efficacy. Nevertheless, the rankings were similar overall whether the panel was assayed by using peptide stock solutions prepared in 10% sucrose/H2O (FIGS. 1 and 2a) or peptide stock solutions prepared in 1:1 DMSO/H2O. From these preliminary structure-activity relationship (SAR) studies, we identified a pronounced sequence dependence for efficient plasma HDL remodeling (vide infra).
Human plasma remodeling: All procedures involving human samples were approved by TSRI Institutional Review Board. Procedures were modified from those reported in Troutt et al., J. Lipid Res. 49, 581-587, 2008. Blood samples from normal healthy human donors were obtained from TSRI Normal Blood Donor Program. EDTA-anticoagulated whole blood was centrifuged at 1500×g for 15 min within 1 h of being drawn from the donor. The plasma layer was aliquoted and used immediately or frozen at −80° C. for future use. Peptide stock solutions were prepared at ˜15 mM peptide in 50% DMSO for initial screenings, or at ˜2 mM peptide in 10% sucrose for remodeling assays at lower concentrations (FIG. 1) and cholesterol efflux assays (FIG. 2). Plasma samples (30 μL) were treated with peptide stocks, and the samples were incubated at 37° C. for 0.5-1 h, and then quenched by adding 270 μL of 50% sucrose (1:9 dilution). Samples were mixed with 6× native loading buffer (125 mM tris, pH 6.8, 0.02% bromophenol, 20% glycerol), of which 6 μL was loaded onto a 4-20% polyacrylamide gel. The molecular weight ladder used was High Molecular Weight Calibration Kit (Amersham Biosciences, #17-0445-01). […] The films were scanned and quantified by densitometry using the program LabWorks (v. 4.0.0.8). […]

CC(C)C[C@@H]1NC(=O)[C@@H](Cc2c[nH]c3ccccc23)NC(=O)[C@H](CCCNC(=N)N)NC(=O)[C@@H](CCC(=O)O)NC(=O)[C@H](CCC(N)=O)NC(=O)[C@@H](CCC(=O)O)NC(=O)[C@H](CCCNC(=N)N)NC(=O)[C@@H](Cc2c[nH]c3ccccc23)NC1=O [SEQ ID NO:1, c[wLwReQeR]] (cyclo([dW]L[dW]R[dE]Q[dE]R))
plasma HDL remodeling to lipid-poor HDL (in words): considerably more active than any of four analogs
